Source: ChEMBL document CHEMBL1649244, “Horizontal transfer of tetracycline resistance among Chlamydia spp. in vitro” (2009)

Assays:
Type in all cases: functional
Chlamydia trachomatis [1] = assay: Antimicrobial activity against Chlamydia trachomatis L2/oflR harboring ompA gene
Chlamydia suis [2] = assay: Antimicrobial activity against Chlamydia suis S45/rifR harboring rpoB gene
Chlamydia trachomatis [3] = assay: Antimicrobial activity against Chlamydia trachomatis J/6276/rifR harboring ompA and rpoB genes
Chlamydia muridarum [4] = assay: Antimicrobial activity against Chlamydia muridarum MoPn/oflR harboring ompA gene
Chlamydia trachomatis [5] = assay: Antimicrobial activity against Chlamydia trachomatis L2/oflR-rifR1 harboring ompA and rpoB genes
Chlamydia suis [6] = assay: Antimicrobial activity against Chlamydia suis R19/tetR harboring tet(C) allele
Chlamydia muridarum [7] = assay: Antimicrobial activity against Chlamydia muridarum MoPn/rifRoflR harboring ompA and rpoB genes
Chlamydia trachomatis [8] = assay: Antimicrobial activity against Chlamydia trachomatis L2/tetR13 harboring tet(C) allele
Chlamydia trachomatis [9] = assay: Antimicrobial activity against Chlamydia trachomatis J/6276/tetR harboring tet(C) allele
Chlamydia trachomatis [10] = assay: Antimicrobial activity against Chlamydia trachomatis F/70/rifR harboring rpoB gene
Chlamydophila caviae = assay: Antimicrobial activity against Chlamydophila caviae GPIC/rifR harboring rpoB gene; conditions: Chlamydia caviae
Chlamydia trachomatis [11] = assay: Antimicrobial activity against Chlamydia trachomatis L2/oflR-rifR2 harboring […] and rpoB genes
Chlamydia trachomatis [12] = assay: Antimicrobial activity against Chlamydia trachomatis J/6276/oflR-rifR1 harboring ompA and rpoB genes
Chlamydia muridarum [13] = assay: Antimicrobial activity against Chlamydia muridarum MoPn/oflR-rifR harboring ompA and rpoB genes
Chlamydia trachomatis [14] = assay: Antimicrobial activity against Chlamydia trachomatis J/6276/oflR-rifR2 harboring ompA and rpoB genes
Chlamydia trachomatis [15] = assay: Antimicrobial activity against Chlamydia trachomatis L2/tetR1 harboring tet(C) allele
Chlamydia muridarum [16] = assay: Antimicrobial activity against Chlamydia muridarum MoPn/tetR14 harboring tet(C) allele
Chlamydia muridarum [17] = assay: Antimicrobial activity against Chlamydia muridarum MoPn/tetR1 harboring tet(C) allele
Chlamydia trachomatis [18] = assay: Antimicrobial activity against Chlamydia trachomatis F/70/rifR-tetR harboring rpoB gene and tet(C) allele

Measured: MIC

CC1COc2c(N3CCN(C)CC3)c(F)cc3c(=O)c(C(=O)O)cn1c23 (configuration not stated) [OFLOXACIN]
16 µg/mL: Chlamydia trachomatis [1] | Chlamydia trachomatis [5] | Chlamydia trachomatis [8] | Chlamydia trachomatis [11] | Chlamydia trachomatis [12] | Chlamydia trachomatis [15]
0.5 µg/mL: Chlamydia suis [2] | Chlamydia trachomatis [3] | Chlamydia suis [6] | Chlamydia trachomatis [9] | Chlamydia trachomatis [10] | Chlamydophila caviae | Chlamydia trachomatis [18]
32 µg/mL: Chlamydia muridarum [4] | Chlamydia muridarum [7] | Chlamydia muridarum [13] | Chlamydia trachomatis [14] | Chlamydia muridarum [16] | Chlamydia muridarum [17]

CO[C@H]1/C=C/O[C@@]2(C)Oc3c(C)c(O)c4c(O)c(c(/C=N/N5CCN(C)CC5)c(O)c4c3C2=O)NC(=O)/C(C)=C\C=C\[C@H](C)[C@H](O)[C@@H](C)[C@@H](O)[C@@H](C)[C@H](OC(C)=O)[C@@H]1C [RIFAMPIN]
0.008 µg/mL: Chlamydia muridarum [4] | Chlamydia muridarum [17]
128 µg/mL: Chlamydia trachomatis [5] | Chlamydia muridarum [7] | Chlamydia trachomatis [15] | Chlamydia muridarum [16]
32 µg/mL: Chlamydia trachomatis [10] | Chlamydia trachomatis [18]
8 µg/mL: Chlamydia trachomatis [9] | Chlamydia trachomatis [12] | Chlamydia trachomatis [14]
0.25 µg/mL: Chlamydia suis [2] | Chlamydia trachomatis [11] | Chlamydia muridarum [13]
16 µg/mL: Chlamydophila caviae
0.004 µg/mL: Chlamydia trachomatis [1] | Chlamydia trachomatis [3] | Chlamydia suis [6] | Chlamydia trachomatis [8]

CN(C)[C@@H]1C(O)=C(C(N)=O)C(=O)[C@@]2(O)C(O)=C3C(=O)c4c(O)cccc4[C@@](C)(O)[C@H]3C[C@@H]12 [TETRACYCLINE]
0.032 µg/mL: Chlamydia trachomatis [1] | Chlamydia suis [2] | Chlamydia trachomatis [3] | Chlamydia muridarum [4] | Chlamydia trachomatis [10] | Chlamydophila caviae | Chlamydia trachomatis [11] | Chlamydia trachomatis [12] | Chlamydia muridarum [13] | Chlamydia trachomatis [14]
0.008 µg/mL: Chlamydia trachomatis [5] | Chlamydia muridarum [7]
8 µg/mL: Chlamydia suis [6] | Chlamydia trachomatis [8] | Chlamydia trachomatis [9] | Chlamydia trachomatis [15] | Chlamydia muridarum [16] | Chlamydia muridarum [17] | Chlamydia trachomatis [18]
